These results are taken from ChEMBL document CHEMBL5154694, “Fascaplysin derivatives binding to DNA via unique cationic five-ring coplanar backbone showed potent antimicrobial/antibiofilm activity against MRSA in vitro and in vivo” (Eur J Med Chem, 2022).

The test system of data set [1] is Staphylococcus aureus. The data set can be described thus: Antibacterial activity against methicillin-resistant Staphylococcus aureus ATCC 4330 after 16 to 18 hrs by microbroth dilution method. The class given is functional. Conditions: time 16-18 hrs. (In general: In broth dilution the organism is exposed to a series of concentrations in liquid medium.)
Data set [2] concerns Staphylococcus aureus. The data set can be described thus: Bactericidal activity against methicillin-resistant Staphylococcus aureus ATCC 4330 assessed as reduction in bacterial counts at 2X MIC within 0.5 hrs by time-kill kinetic assay. The class given is functional.
The subject of data set [3] is Staphylococcus aureus. The experiment in a line: Bactericidal activity against methicillin-resistant Staphylococcus aureus ATCC 4330 assessed as reduction in bacterial counts at 1 to 4X MIC within 24 hrs by time-kill kinetic assay. It is filed as functional.
Data set [4] is described as follows: Hemolytic activity in mouse erythrocytes assessed as hemolysis at 12.5 ug/ml relative to control. The class given is toxicity, cell-based, Erythrocyte. The note with it: at 12.5 µg/mL, read-out: Activity.
Data set [5] in a line: Cytotoxicity against mouse RAW264.7 cells assessed as cell survival at 12.5 ug/ml incubated for 24 hrs by CCK-8 assay. It is filed as toxicity, cell-based. The note with it: at 12.5 µg/mL, read-out: Activity. On the technique in general: Formazan colour is commonly taken as a measure of viable cells.
Data set [6] can be described thus: Cytotoxicity against mouse RAW264.7 cells assessed as cell survival at 25 ug/ml incubated for 24 hrs by CCK-8 assay. The note with it: at 25 µg/mL, read-out: Activity. The class given is toxicity, cell-based.
Data set [7] in a line: Cytotoxicity against mouse RAW264.7 cells assessed as cell survival at 50 ug/ml incubated for 24 hrs by CCK-8 assay. It is filed as toxicity, cell-based. The note with it: at 50 µg/mL, read-out: Activity.
Data set [8] concerns Staphylococcus aureus. The data set can be described thus: Antibiofilm activity against methicillin-resistant Staphylococcus aureus ATCC 4330 assessed as inhibition of biofilm formation at 6.25 ug/ml after 24 hrs by crystal violet staining based assay relative to control. It is filed as functional.
For data set [9], the system named is Staphylococcus aureus. The experiment in a line: Antibiofilm activity against methicillin-resistant Staphylococcus aureus ATCC 4330 assessed as fold change in downregulation of AgrA mRNA expression at 4X MIC after 2 hrs by qRT-PCR assay. The class given is functional.
For data set [10], the system named is Staphylococcus aureus. The data set can be described thus: Antimicrobial activity against methicillin-resistant Staphylococcus aureus ATCC 4330 infected in female ICR peritonitis mouse model assessed as increase in survival rate of mouse at 10 mg/kg, ip. The class given is functional.
The subject of data set [11] is Staphylococcus aureus. The data set can be described thus: Antimicrobial activity against methicillin-resistant Staphylococcus aureus ATCC 4330 infected in female ICR peritonitis mouse model assessed as survival time of mouse at 10 mg/kg, ip. The class given is functional.
In data set [12] the test system is Staphylococcus aureus. The experiment in a line: Antimicrobial activity against methicillin-resistant Staphylococcus aureus ATCC 4330 infected in female ICR peritonitis mouse model assessed as reduction in bacteria in blood at 10 mg/kg, ip. It is filed as functional. On the set-up: scale not given: the % may be the effect or the level left.
Data set [13] is described as follows: Toxicity in female ICR peritonitis mouse model infected with methicillin-resistant Staphylococcus aureus ATCC 4330 assessed as lung damage at 10 mg/kg, ip. The class given is organism-based. The note with it: in vivo.
A short description of data set [14]: Toxicity in female ICR peritonitis mouse model infected with methicillin-resistant Staphylococcus aureus ATCC 4330 assessed as liver damage at 10 mg/kg, ip. The note with it: in vivo. It is filed as organism-based.
Data set [15] in a line: Toxicity in female ICR peritonitis mouse model infected with methicillin-resistant Staphylococcus aureus ATCC 4330 assessed as kidney damage at 10 mg/kg, ip. It is filed as organism-based. Conditions: in vivo.
Data set [16] is described as follows: Stability in plasma (unknown origin). It is filed as ADME, cell-free. Conditions: unidentified.
The nature of data set [17]: Cmax in rat plasma at 3 mg/kg, iv. More on the design: dose 3 mg/kg, route iv. The class given is ADME, organism-based.
Data set [18] in a line: Cmax in rat plasma at 15 mg/kg, IG. On the set-up: dose 15 mg/kg, route ig. Conditions: po. It is filed as ADME, organism-based.

By MIC is commonly meant the least concentration at which growth counts as inhibited. What is called inhibition is the relative decrease from the control value, in per cent. In general, Cmax refers to the highest concentration seen after dosing.

In turn, `Cc1ccc2[nH]c3c4[n+](ccc3c2c1)-c1ccccc1C4=O.[Br-]` registered an MIC against Staphylococcus aureus [1] of 0.195 µg/mL. Further, the Activity was 1.7 log10CFU/ml in the data set with Staphylococcus aureus [2]; 2 log10CFU/ml in the data set with Staphylococcus aureus [3]; 20% with Staphylococcus aureus [10]; 92% with Staphylococcus aureus [12]; “Non-Toxic” in data set [13]; “Non-Toxic” in data set [14]. Further, the Activity entry in data set [15] is on record as “Non-Toxic”. In data set [4], the hemolysis at 12.5 ug/ml came to 0%. Besides, in [5], the viability at 24 h, 12.5 ug/ml is 17.7%. The viability at 24 h, 25 ug/ml in data set [6] was 56.3%. Also, the viability at 24 h, 50 ug/ml in [7] stood at 69.8%. For the same compound, in the data set on Staphylococcus aureus [8], the inhibition at 6.25 µg/mL was found to be 65.4%. Also, in the data set with Staphylococcus aureus [9], the “fold change (FC)” value was found to be 0.71. Also, the Survival with Staphylococcus aureus [11] amounted to 2 days.
`O=C1c2ccccc2-[n+]2ccc3c([nH]c4ccccc43)c21.[Cl-]` [FASCAPLYSIN CHLORIDE]: the minimal inhibitory concentration (MIC) in the data set on Staphylococcus aureus [1] worked out at 0.78 µg/mL. Also, in [16], the Stability worked out at 94.9%. Further, the Activity in the data set with Staphylococcus aureus [2] is given as 0 log10CFU/ml; in the data set on Staphylococcus aureus [3], 2 log10CFU/ml. For the same compound, the Cmax in data set [17] was found to be 414 ng/mL; in data set [18], 65.2 ng/mL.
